Experiments:
VEGFR2 = test: Western blotting of VEGF induced VEGFR2 phosphorylation in HUVECs; format: cell-based, human; conditions: AICAR 2 mM 2 h, VEGF 12.5 ng/mL 0 to 60 min; FIG. 8C,D
Method: Human umbilical vein endothelial cells (HUVECs) were cultured in endothelial growth medium (EGM, Lonza, Walkersville, Md.). Normal human dermal fibroblasts (NHDFs) were cultured in fibroblast basal medium (ATCC, Rockville, Md.). Cells were grown at 37° C. in a humidified atmosphere of 95% air, 5% CO2. Experiments were performed on cells below passage 3 to 6 grown to 80%-90% confluence. Protein extraction and Western blotting were carried out as described previously (Morizane et al. JBC (26)). We conducted a densitometric analysis of bands using ImageJ software. Lane-loading differences were normalized by β-actin.

caveolin-1 [1] = test: Western blotting of H2O2 induced caveolin-1 phosphorylation in HUVEC; format: cell-based, human; conditions: AICAR 2 mM 2 h
Method: HUVECs (Lonza, Walkersville, Md.) were cultured in Endothelial Growth Medium (EGM, Lonza, Walkersville, Md.). For all experiments, cells were grown at 37° C. in a humidified atmosphere of 5% CO2 and 95% air. Experiments were performed on cells below passage 3 to 6 grown to 80-90% confluence.
Protein extraction and western blotting were carried out as described previously (Morizane et al. JBC). Densitometric analysis of bands was performed using ImageJ software. Lane-loading differences were normalized by β-actin.
(§1) Cells were transfected with siRNAs using Nucleofection kit (Amaxa Biosysteins, Gaithersburg, Md.), following the manufacturer's protocol. The medium was changed at 6 h after transfection. The down-regulation of each protein was evaluated at 3 days after nucleofection.

caveolin-1 [2] = test: Western blotting of VEGF induced caveolin-1 phosphorylation in HUVECs; format: cell-based, human; conditions: AICAR 2 mM 2 h
Method: (§2) Human umbilical vein endothelial cells (HUVECs) were cultured in endothelial growth medium (EGM, Lonza, Walkersville, Md.). Normal human dermal fibroblasts (NHDFs) were cultured in fibroblast basal medium (ATCC, Rockville, Md.). Cells were grown at 37° C. in a humidified atmosphere of 95% air, 5% CO2. Experiments were performed on cells below passage 3 to 6 grown to 80%-90% confluence.
(§3) Protein extraction and Western blotting were carried out as described previously (Morizane et al. JBC (26)). We conducted a densitometric analysis of bands using ImageJ software. Lane-loading differences were normalized by β-actin.
Cells were transfected with siRNAs using a Nucleofection kit (Amaxa Biosystems, Gaithersburg, Md.), following the manufacturer's protocol. The medium was changed 6 h after transfection. The down-regulation of each protein was evaluated 3 days after nucleofection.

HUVECs = test: Albumin endocytosis assay under VEGF; format: cell-based, human; conditions: AICAR 2 mM 2 h, VEGF 12.5 ng/mL 10 min; FIG. 10B
Method: After overnight serum starvation, HUVECs were pretreated with AICAR (2 mM) for 2 h and then stimulated with VEGF (12.5 ng/mL) for 10 min. We added BSA conjugated with Alexa 555 (50 μg/mL, Life Technologies, Gaithersburg, Md.) in the medium during the experiment. Cells on coverslips were washed three times with cold TBS and fixed in 100% methanol at −20° C. for 15 min. Cells were then permeabilized in 0.3% Triton X-100, 0.15% BSA in TBS with 0.05% Tween 20 (TBST) for 15 min at room temperature, and blocked with 0.5% skim milk in TBST for 60 min at room temperature. Cells were incubated in p-caveolin-1 antibody diluted 1:200 and VE-cadherin antibody diluted 1:400 overnight at 4° C., and then incubated for 2 h in secondary antibody diluted 1:300. Cells were then rinsed three times in TBST before mounting in Toto3 (Life Technologies). Images were acquired with a Leica TCS SP2 spectral confocal laser scanning microscope (Leica Microsystems, Wetzlar, Germany).

endothelial cells = conditions: in the absence of VEGF; cited from earlier work
PTEN = test: Western blotting of PTEN phosphorylation in HUVECs; format: cell-based, human; conditions: AICAR 2 mM, presence or absence of VEGF; FIG. 9A,D
Method: as §2, §3

prdx1/c-Abl complex = test: Co-immunoprecipitation of prdx1 and c-Abl under H2O2; format: cell-based, human; conditions: AICAR 2 mM 2 h, H2O2 2 mM 30 min
Method: Immunoprecipitation was performed with the Universal Magnetic Co-IP Kit (Active Motif North America, Carlsbad, Calif.), according to the manufacturer's instruction.
as §1

NC(=O)c1ncn([C@@H]2O[C@H](CO)[C@@H](O)[C@H]2O)c1N [AICAR, 5-Aminoimidazole-4-carboxamide riboside]
VEGFR2 phosphorylation upon VEGF stimulation (VEGFR2): no effect
inhibitory effect of AICAR on H2O2 induced caveolin-1 phosphorylation after knockdown of either AMPKα isoform (caveolin-1 [1]; AMPKα1 or α2 siRNA HUVEC, H2O2 2 mM 30 min, FIG. 3): abolished
H2O2 induced phosphorylation of caveolin-1 (caveolin-1 [1]; HUVEC, then H2O2 0.5-2.0 mM 30 min, FIG. 1A,B): significantly suppressed
H2O2 induced caveolin-1 phosphorylation in c-Abl siRNA cells (caveolin-1 [1]; c-Abl siRNA HUVEC, H2O2 2 mM 30 min, FIG. 5D,E): did not change caveolin-1 phosphorylation significantly
inhibitory effect of AICAR on H2O2 induced caveolin-1 phosphorylation in cells lacking prdx1 (caveolin-1 [1]; prdx1 siRNA HUVEC, H2O2 2 mM 30 min, FIG. 6A,B): abolished
VEGF induced phosphorylation of caveolin-1 (caveolin-1 [2]; VEGF 12.5 ng/mL 0 to 60 min, FIG. 11A,C): significantly suppressed
inhibitory effect of AICAR on VEGF-induced caveolin-1 phosphorylation after knockdown of either AMPKα isoform (caveolin-1 [2]; AMPKα1 or α2 siRNA, VEGF 12.5 ng/mL 10 min, FIG. 13): abolished
inhibitory effect of AICAR on VEGF-induced caveolin-1 phosphorylation in cells lacking prdx1 (caveolin-1 [2]; prdx1 siRNA, VEGF 12.5 ng/mL 10 min, FIG. 15A,C): abolished
VEGF-induced albumin endocytosis (HUVECs): significantly suppressed
endothelial proliferation (endothelial cells): suppressed endothelial proliferation
PTEN phosphorylation on AICAR treatment (time course) (PTEN): resulted in AMPK and PTEN phosphorylation
H2O2 induced dissociation between prdx1 and c-Abl (prdx1/c-Abl complex; FIG. 6D): inhibited
inhibitory effect of AICAR on dissociation between c-Abl and prdx1 after deletion of AMPKα1 or α2 (prdx1/c-Abl complex; AMPKα1 or α2 siRNA HUVEC, FIG. 6F,G): decreased
